The values that follow are results of earlier work, collected in US20090098211A1, “SOLID DOSAGE FORMS” (priority 2007, published 2009).

`CN1CC(=O)N2[C@H](c3ccc4c(c3)OCO4)c3[nH]c4ccccc4c3C[C@@H]2C1=O` [Tadalafil, (6R-trans)-6-(1,3-benzodioxol-5-yl)-2,3,6,7,12,12a-hexahydro-2-methyl-pyrazino[1′,2′:1,6]pyrido[3,4-b]indole-1,4-dione]: for the setting “water”, the “solubility in water (in words)” value is listed as “practically insoluble in water”. In addition, the water solubility entry (water at 25° C.) was “about 2 μg per mL”.
